Assay results reported in patent US20220241409A1, “WATER SOLUBLE ADJUVANT AND COMPOSITION CONTAINING SAME” (Sumitomo Dainippon Pharma Co., Ltd., priority 2019, published 2022).

How the values were obtained:
[1] = test system: HLA-A*02:01 transgenic mouse; assay: In vivo adjuvant activity, CTL induction with vaccine a, IFNγ ELISPOT (Test 6); settings: for CTL counts responsive to Peptide SEQ ID No. 1 (IFNγ-producing cells) / CTL counts responsive to Peptide SEQ ID No. 5 (IFNγ-producing cells): compound added to vaccine a versus vaccine a, intradermal, Example 3 32.5 ng per body, Reference example 14 17.5 ng per body, one week later
Description: The in vivo adjuvant activity of the compound of Example 3 and the compound of Reference example 14 was evaluated in the following procedure. To a cocktail vaccine comprising Compound of formula 4 prepared in Reference example 9 and Peptide SEQ ID No. 3 prepared in Reference example 3 with a preliminarily-emulsified composition (hereinafter, referred to as “vaccine a”) was added the compound prepared in Example 3 or the compound prepared in Reference example 14 respectively to prepare each vaccine. The vaccine was administered to a HLA-A*02:01 transgenic mouse, and the adjuvant activity of each vaccine was evaluated by the method of testing antigen-specific cytotoxic T-lymphocyte (CTL) induction. The RMFPNAPYL (SEQ ID No. 1) in Compound of formula 4 and VLDFAPPGA (SEQ ID No. 5) in Peptide SEQ ID No. 3 correspond to antigen peptides derived from an HLA-A*02:01-restricted WT1 protein.
HLA-A*02:01 transgenic mouse (C57BL/6CrHLA-A2.1DR1) lacks mouse MHC, and instead expresses a chimeric HLA of a human MHC (HLA-A*02:01) and a mouse MHC (H-2D^b), and HLA-DRB1*01:01. The mouse can evaluate the pharmacological activity of immunotherapeutic agents including a peptide which induces CTLs in HLA-A*02:01-positive human (Eur J Immunol. 2004; 34: 3060-9). In addition, the mouse can also evaluate the induction of a helper peptide which can bind to a human HLA-DRB1*01:01 to induce a helper T-cell, and the enhancing effect for inducing CTLs.
The character for inducing CTLs specific to the antigen peptide (SEQ ID No. 1 or SEQ ID No. 5) by vaccine a was evaluated by measuring whether IFNγ can be produced upon stimulation of splenocytes from the mouse with the peptide. In addition, the character for exerting in vivo adjuvant activity by the compound in Example 3 or the compound in Reference example 14 was evaluated by comparing the number of CTLs induced by vaccine a and the number of CTLs induced by the vaccine prepared by adding the compound prepared in Example 3 or the compound in Reference example 14 to vaccine a, and checking presence or absence of the increase on the number.
0.312 g of sodium dihydrogen phosphate dihydrate was dissolved in 80 g of water for injection. 14.0 g of ethyl oleate, 14.0 g of octyldodecyl myristate, 2.0 g of sorbitan monooleate, 2.8 g of glyceryl monooleate, 0.4 g of polyoxyethylene hydrogenated castor oil 20, and 0.4 g of glycerin were mixed. 2.354 mL of the mixture (corresponding to 2.077 g) was put into a test tube, and 0.396 mL of the aqueous sodium dihydrogen phosphate (corresponding to 0.396 g) was gradually added into the test tube which was being stirred with a mixer (ULTRA-TURRAX T10, IKA, or Touch Mixer MT-51, Yamato Scientific) to emulsify the mixture in the test tube. The obtained emulsion was referred to as preliminary emulsified composition. The amount of the preparation was adjusted as appropriate.
Compound of formula 4 and Peptide SEQ ID No. 3 were dissolved in DMSO, and then diluted with water for injection to concentrations of Compound of formula 4 of 3 mg/ml and Peptide of SEQ ID No. 3 of 2.25 mg/ml. The diluted peptide solution was mixed and emulsified with an equal volume of the above preliminary emulsified composition to prepare vaccine a. Vaccine a was injected to mice intradermally at the tail base area in an amount for administering 300 μg of Compound of formula 4 per body and 225 μg of Peptide SEQ ID No. 3 per body. Or, in the step of preparing vaccine a, the compound prepared in Example 3 was added to the diluted peptide solution to prepare a vaccine, and the prepared vaccine was injected to mice intradermally at the tail base area in an amount for administering 300 μg of Compound of formula 4 per body, 225 μg of Peptide SEQ ID No. 3 per body, and 32.5 ng of the compound prepared in Example 3 per body. […]

[2] = test system: HLA-A*02:01 transgenic mouse; assay: In vivo adjuvant activity, CTL induction with vaccine a, IFNγ ELISPOT (Test 7); settings: for CTL counts responsive to Peptide SEQ ID No. 5: compound added to vaccine a versus no compound, Example 2 325 ng per body, Reference example 12 225 ng per body, twice, one week interval
Description: The in vivo adjuvant activity of the compound prepared in Example 2 and the compound prepared in Reference example 12 was evaluated in the following procedure. To vaccine a was added the compound prepared in Example 2 or the compound prepared in Reference example 12 to prepare each vaccine, and the vaccine was administered to a HLA-A*02:01 transgenic mouse, and the adjuvant activity of each vaccine was evaluated by the method of testing antigen-specific CTL induction.
Specifically, vaccine a prepared like Test 6 was injected to mice intradermally at the tail base area in an amount for administering 300 μg of Compound of formula 4 per body and 225 μg of Peptide SEQ ID NO. 3 per body. Or, in the step of preparing vaccine a, the compound prepared in Example 2 was added to the diluted peptide solution to prepare a vaccine, and the prepared vaccine was injected to mice intradermally at the tail base area in an amount for administering 300 μg of Compound of formula 4 per body, 225 μg of Peptide SEQ ID No. 3 per body, and 325 ng of the compound prepared in Example 2 per body. Or, in the step of preparing vaccine a, the compound prepared in Reference example 12 was added to the diluted peptide solution to prepare a vaccine, and the prepared vaccine was injected to mice intradermally at the tail base area in an amount for administering 300 μg of Compound of formula 4 per body, 225 μg of Peptide SEQ ID No. 3 per body, and 225 ng of the compound prepared in Reference example 12 per body. The administrations were done twice, which had one week interval. One week after the final administration, the mice were sacrificed with CO2 gas. Splenocytes were harvested from spleens removed from the mice. In particular, an ELISPOT plate was treated with an anti-mouse-IFNγ antibody on the day before preparation of the splenocyte samples. On the next day, the plate was blocked by treatment with an RPMI 1640 medium with 10% FBS. To the blocked ELISPOT plate, the prepared splenocyte samples were added at 6.25×10^4 cells/well. […] Stained spots were counted on ImmunoSpot Analyzer.

[3] = Example 3 32.5 ng per body versus Reference example 14 17.5 ng per body, added to vaccine

SMILES | CTL counts responsive to Peptide SEQ ID No. 1 (IFNγ-producing cells) [1] | CTL counts responsive to Peptide SEQ ID No. 5 (IFNγ-producing cells) [1] | increase of the CTL counts (Peptide SEQ ID No. 1) compared with Reference example 14 [1, 3] | increase of the CTL counts (Peptide SEQ ID No. 5) compared with Reference example 14 [1, 3] | increase of the CTL counts (Peptide SEQ ID No. 5) compared with Reference example 12 ([2]; Example 2 325 ng per body versus Reference example 12 225 ng per body, added to vaccine) | CTL counts responsive to Peptide SEQ ID No. 5 [2]
CCCCOc1nc(N)c2[nH]c(=O)n(Cc3ccc(CNC)cc3)c2n1 [Reference example 14, reference compound] | increased | increased | – | – | – | –
CCCCOc1nc(N)c2[nH]c(=O)n(Cc3ccc(CN(C)CCOCCOCCOCCOCCO)cc3)c2n1 [Example 3, 6-amino-2-butoxy-9-{[4-(16-hydroxy-2-methyl-5,8,11,14-tetraoxa-2-azahexadecan-1-yl)phenyl]methyl}-7,9-dihydro-8H-purin-8-one] | increased | increased | more | more | – | –
CCCCOc1nc(N)c2[nH]c(=O)n(Cc3ccc(CN(C)CCOCCOCCOCCOCCO)nc3)c2n1 [Example 2, 6-amino-2-butoxy-9-{[6-(16-hydroxy-2-methyl-5,8,11,14-tetraoxa-2-azahexadecan-1-yl)pyridin-3-yl]methyl}-7,9-dihydro-8H-purin-8-one-trifluoroacetate] | – | – | – | – | more | more
CCCCOc1nc(N)c2[nH]c(=O)n(Cc3ccc(CNC)nc3)c2n1 [Reference example 12, reference compound] | – | – | – | – | – | more
